Measured values as given in patent EP4818158A1, “BIARYL COMPOUND” (Kissei Pharmaceutical Co., Ltd., priority 2023, dated 2025).

Target: T1, human TSHR (Homo sapiens, UniProt P16473)
T1 construct: expressed in transfected cells
Assay: Antagonist activity using TSH-induced cAMP generation in human TSHR-stably expressing CHO cells
Type: cell-based
Settings: human TSH 50 ng/mL
Description: Measurement of antagonist activity using TSH-induced cAMP generation in human TSHR-stably expressing CHO cells as an indicator
The gene sequence (reference number: NM_000369.2) of a human TSHR was inserted into multiple cloning sites of pcDNA3.1 (+). Prepared plasmid vectors were introduced into CHO cells using a lipofection method, and human TSHR-stably expressing CHO cells were established. Obtained cells were seeded in a 96-well poly-D-lysine-coated plate at 5 × 10^4 cells/well and cultured in an F12 culture medium containing 10%FBS, 400 µg/mL of G418, 50 U/mL of penicillin, and 50 µg/mL of streptomycin under conditions of 37°C and 5% CO2 for one day. After the culture medium was removed, the cells were washed twice with 100 µL of an assay buffer solution (Hanks' Balanced Salt Solution containing 20 mM HEPES and 1 mM IBMX) per well. 30 µL of a test compound-containing assay buffer solution was added to the well and incubated at room temperature for 15 minutes. Next, 30 µL of an assay buffer solution containing human TSH (final concentration: 50 ng/mL, R&D Systems, Inc.) was added thereto and incubated at 37°C for one hour. A supernatant was removed, a Lysis and Detection Buffer 2(Cisbio) was added thereto, and the mixture was incubated at room temperature for one hour to prepare a cell lysate. According to the instruction manual of a cAMP Gs HiRange kit (Cisbio), the cell lysate, d2-labeled cAMP, and anti-cAMP Europium Cryptate labeled antibodies (Cisbio) were reacted together in a 384-well white microplate. Next, fluorescence intensity ratios (measurement wavelengths: 665 nm/620 nm) were measured using a multi-plate reader (PHERAstar FSX, BMG LABTECH, Japan). The fluorescence intensity ratio of each sample was converted to a cAMP content using a standard curve. The cAMP content was converted as a percentage of the control value to calculate a cAMP generation rate. The cAMP generation rates were plotted against the test compound concentrations using Prism (Graph Pad Software Inc.) to calculate IC50 values. The IC50's of the individual test compounds are shown in the above tables. In the tables, IC50 < 0.3 µM was denoted as A, and 0.3 µM ≤ IC50 < 30 µM was denoted as B. Cases where the IC50 values were not calculated for test compounds from which activity was recognized are denoted as C.

T1 sequence (P16473 21-764): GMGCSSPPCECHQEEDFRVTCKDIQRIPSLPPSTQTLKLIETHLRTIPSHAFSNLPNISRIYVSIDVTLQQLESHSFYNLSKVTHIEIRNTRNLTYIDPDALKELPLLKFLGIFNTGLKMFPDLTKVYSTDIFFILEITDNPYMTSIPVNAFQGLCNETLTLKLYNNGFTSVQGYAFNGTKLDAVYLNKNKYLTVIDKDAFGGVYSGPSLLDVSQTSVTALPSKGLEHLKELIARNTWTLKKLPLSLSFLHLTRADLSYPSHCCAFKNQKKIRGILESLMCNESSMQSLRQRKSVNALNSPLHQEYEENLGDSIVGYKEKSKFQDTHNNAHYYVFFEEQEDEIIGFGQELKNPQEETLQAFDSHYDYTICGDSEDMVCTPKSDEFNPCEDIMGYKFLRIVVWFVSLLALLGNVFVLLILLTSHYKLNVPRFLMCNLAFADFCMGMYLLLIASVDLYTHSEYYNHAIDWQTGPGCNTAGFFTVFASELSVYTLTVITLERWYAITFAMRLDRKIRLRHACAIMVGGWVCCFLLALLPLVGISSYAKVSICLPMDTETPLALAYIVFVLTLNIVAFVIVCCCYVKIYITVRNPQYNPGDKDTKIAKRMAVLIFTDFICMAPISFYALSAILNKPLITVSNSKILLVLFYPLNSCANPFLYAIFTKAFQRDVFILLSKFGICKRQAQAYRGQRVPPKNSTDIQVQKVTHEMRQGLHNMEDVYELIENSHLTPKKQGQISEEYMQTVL

SMILES | IC50 [nM]
CC(C)(C)OC(=O)Nc1ccc(-c2cccnc2CNC(N)=O)c(Cc2ccccc2OCc2ccccc2)c1F [Example A-18, tert-Butyl (3-(2-(benzyloxy)benzyl)-2-fluoro-4-(2-(ureidomethyl)pyridin-3-yl)phenyl)carbamate] | 300 to 30000
CC(C)(C)OC(=O)Nc1ccc(-c2cccnc2CNC(N)=O)c(Cc2ccccc2O)c1F [Example A-19, tert-Butyl (2-fluoro-3-(2-hydroxybenzyl)-4-(2-(ureidomethyl)pyridin-3-yl)phenyl)carbamate] | < 300
CC(C)(COCc1ccccc1)OC(=O)Nc1ccc(-c2cccnc2CNC(N)=O)c(Cc2ccccc2F)c1F [Example A-20, 1-(Benzyloxy)-2-methylpropan-2-yl (2-fluoro-3-(2-fluorobenzyl)-4-(2-(ureidomethyl)pyridin-3-yl)phenyl)carbamate] | < 300
CC(C)(CO)OC(=O)Nc1ccc(-c2cccnc2CNC(N)=O)c(Cc2ccccc2F)c1F [Example A-21, 1-Hydroxy-2-methylpropan-2-yl (2-fluoro-3-(2-fluorobenzyl)-4-(2-(ureidomethyl)pyridin-3-yl)phenyl)carbamate] | 300 to 30000
CC(C)OC(=O)Nc1ccc(-c2cccnc2CNC(N)=O)c(Cc2ccccc2F)c1F [Example A-22] | < 300
C[C@H](OC(=O)Nc1ccc(-c2cccnc2CNC(N)=O)c(Cc2ccccc2F)c1F)C(F)(F)F [Example A-23] | < 300
C[C@@H](OC(=O)Nc1ccc(-c2cccnc2CNC(N)=O)c(Cc2ccccc2F)c1F)C(F)(F)F [Example A-24] | < 300
COC[C@H](C)OC(=O)Nc1ccc(-c2cccnc2CNC(N)=O)c(Cc2ccccc2F)c1F [Example A-25, (S)-1-Methoxypropan-2-yl (2-fluoro-3-(2-fluorobenzyl)-4-(2-(ureidomethyl)pyridin-3-yl)phenyl)carbamate] | 300 to 30000
NC(=O)NCc1ncccc1-c1ccc(NC(=O)OC2CC2)c(F)c1Cc1ccccc1F [Example A-26, Cyclopropyl (2-fluoro-3-(2-fluorobenzyl)-4-(2-(ureidomethyl)pyridin-3-yl)phenyl)carbamate] | 300 to 30000
NC(=O)NCc1ncccc1-c1ccc(NC(=O)OC2CCC(F)(F)C2)c(F)c1Cc1ccccc1F (centres unmarked) [Example A-27, 3,3-Difluorocyclopentyl (2-fluoro-3-(2-fluorobenzyl)-4-(2-(ureidomethyl)pyridin-3-yl)phenyl)carbamate] | < 300
NC(=O)NCc1ncccc1-c1ccc(NC(=O)OC2CCOC2)c(F)c1Cc1ccccc1F (centres unmarked) [Example A-28] | 300 to 30000
NC(=O)NCc1ncccc1-c1ccc(NC(=O)OC2CN3CCC2CC3)c(F)c1Cc1ccccc1F (centres unmarked) [Example A-29, (2-Fluoro-3-(2-fluorobenzyl)-4-(2-(ureidomethyl)pyridine-3-yl)phenyl)carbamate quinuclidine-3-yl] | 300 to 30000
CN(C)CCCOC(=O)Nc1ccc(-c2cccnc2CNC(N)=O)c(Cc2ccccc2F)c1F [Example A-30, 3-(Dimethylamino)propyl (2-fluoro-3-(2-fluorobenzyl)-4-(2-(ureidomethyl)pyridin-3-yl)phenyl)carbamate] | 300 to 30000
NC(=O)NCc1ncccc1-c1ccc(NC(=O)OCC2CC2)c(F)c1Cc1ccccc1F [Example A-31, Cyclopropylmethyl (2-fluoro-3-(2-fluorobenzyl)-4-(2-(ureidomethyl)pyridin-3-yl)phenyl)carbamate] | < 300
NC(=O)NCc1ncccc1-c1ccc(NC(=O)OCC2CC2(F)F)c(F)c1Cc1ccccc1F (centres unmarked) [Example A-33] | < 300
NC(=O)NCc1ncccc1-c1ccc(NC(=O)OCC2(C(F)F)CC2)c(F)c1Cc1ccccc1F [Example A-34] | < 300
NC(=O)NCc1ncccc1-c1ccc(NC(=O)OCC2CCOC2)c(F)c1Cc1ccccc1F (centres unmarked) [Example A-35] | < 300
NC(=O)NCc1ncccc1-c1ccc(NC(=O)OCc2ccccc2F)c(F)c1Cc1ccccc1F [Example A-36] | < 300

SMILES | IC50 [nM]
CC(C)(OC(=O)Nc1ccc(-c2cccnc2CNC(N)=O)c(Cc2ccccc2C#N)c1F)C(F)F [Example A-37, 1,1-Difluoro-2-methylpropan-2-yl (3-(2-cyanobenzyl)-2-fluoro-4-(2-(ureidomethyl)pyridin-3-yl)phenyl)carbamate] | 300 to 30000
N#Cc1ccccc1Cc1c(-c2cccnc2CNC(N)=O)ccc(NC(=O)OC2CC3CCC2CC3)c1F (centres unmarked) [Example A-38, Bicyclo[2.2.2]octan-2-yl (3-(2-cyanobenzyl)-2-fluoro-4-(2-(ureidomethyl)pyridin-3-yl)phenyl)carbamate] | 300 to 30000
CC(C)(C)OC(=O)Nc1ccc(-c2cccnc2CCC(N)=O)c(Cc2ccccc2C#N)c1F [Example A-39, tert-Butyl (4-(2-(3-amino-3-oxopropyl)pyridin-3-yl)-3-(2-cyanobenzyl)-2-fluorophenyl)carbamate] | < 300
CC(C)(C)OC(=O)Nc1ccc(-c2cccnc2CCC(N)=O)c(Cc2ccccc2S(C)(=O)=O)c1F [Example A-40, tert-Butyl (4-(2-(3-amino-3-oxopropyl)pyridin-3-yl)-2-fluoro-3-(2-(methylsulfonyl)benzyl)phenyl)carbamate] | 300 to 30000
CC(C)(C)OC(=O)Nc1ccc(-c2cccnc2CNC(N)=O)c(Oc2ccccc2)c1F [Example B-1, tert-Butyl (2-fluoro-3-phenoxy-4-(2-(ureidomethyl)pyridin-3-yl)phenyl)carbamate] | < 300
CC(C)(C)OC(=O)Nc1ccc(-c2cccnc2CNC(N)=O)c(Oc2ccccc2F)c1F [Example B-2, tert-Butyl (2-fluoro-3-(2-fluorophenoxy)-4-(2-(ureidomethyl)pyridin-3-yl)phenyl)carbamate] | < 300
C[C@H](OC(=O)Nc1ccc(-c2cccnc2CNC(N)=O)c(Oc2ccccc2F)c1F)C(F)(F)F [Example B-3, (S)-1,1,1-Trifluoropropan-2-yl (2-fluoro-3-(2-fluorophenoxy)-4-(2-(ureidomethyl)pyridin-3-yl)phenyl)carbamate] | < 300
NC(=O)NCc1ncccc1-c1ccc(NC(=O)OCC2CC(F)(F)C2)c(F)c1Oc1ccccc1F [Example B-4] | < 300
NC(=O)NCc1ncccc1-c1ccc(NC(=O)OC2CC(F)(F)C2)c(F)c1Oc1ccccc1F [Example B-5] | 300 to 30000
CC(C)(C)OC(=O)Nc1ccc(-c2cccnc2CCC(N)=O)c(Oc2ccccc2F)c1F [Example B-6, tert-Butyl (4-(2-(3-amino-3-oxopropyl)pyridin-3-yl)-2-fluoro-3-(2-fluorophenoxy)phenyl)carbamate] | < 300
CC(O)c1ncccc1-c1ccc(NC(=O)OC(C)(C)C)cc1Oc1ccccc1 (centres unmarked) [Example B-7, tert-Butyl (4-(2-(1-hydroxyethyl)pyridine-3-yl)-3-phenoxyphenyl)carbamate] | > 30000
CC(C)(C)OC(=O)Nc1ccc(-c2ccnnc2CNC(N)=O)c(Cc2ccccc2F)c1F [Example C-1, tert-Butyl (2-fluoro-3-(2-fluorobenzyl)-4-(3-(ureidomethyl)pyridazin-4-yl)phenyl)carbamate] | < 300
C[C@H](OC(=O)Nc1ccc(-c2ccnnc2CNC(N)=O)c(Cc2ccccc2F)c1F)C(F)(F)F [Example C-2, (S)-1,1,1-Trifluoropropan-2-yl (2-fluoro-3-(2-fluorobenzyl)-4-(3-(ureidomethyl)pyridazin-4-yl)phenyl)carbamate] | < 300
CC1(OC(=O)Nc2ccc(-c3ccnnc3CNC(N)=O)c(Cc3ccccc3F)c2F)CC1 [Example C-3, 1-Methylcyclopropyl (2-fluoro-3-(2-fluorobenzyl)-4-(3-(ureidomethyl)pyridazin-4-yl)phenyl)carbamate] | 300 to 30000
CC(C)(C)OC(=O)Nc1ccc(-c2ccnnc2CCC(N)=O)c(Cc2ccccc2F)c1F [Example C-4, tert-Butyl (4-(3-(3-amino-3-oxopropyl)pyridazin-4-yl)-2-fluoro-3-(2-fluorobenzyl)phenyl)carbamate] | < 300
C[C@H](OC(=O)Nc1ccc(-c2ccnnc2CCC(N)=O)c(Cc2ccccc2F)c1F)C(F)(F)F [Example C-5, (S)-1,1,1-Trifluoropropan-2-yl (4-(3-(3-amino-3-oxopropyl)pyridazin-4-yl)-2-fluoro-3-(2-fluorobenzyl)phenyl)carbamate] | < 300
C[C@@H](OC(=O)Nc1ccc(-c2ccnnc2CCC(N)=O)c(Cc2ccccc2F)c1F)C1CC1 [Example C-6, (R)-1-Cyclopropylethyl (4-(3-(3-amino-3-oxopropyl)pyridazin-4-yl)-2-fluoro-3-(2-fluorobenzyl)phenyl)carbamate] | < 300
